IC50 data for 35 compounds are collected here from patent US11839613B2, “Pyrimidine derivatives as PGE2 receptor modulators” (IDORSIA PHARMACEUTICALS LTD, priority 2017, dated 2023).

Read-outs that look alike come from different tables or passages of the source.

Test [1] has as its target EP4 (Homo sapiens (Human), UniProt P35408). Description: hEP4 cAMP assay (BT549 breast cancer cells, HTRF cAMP). The format is cell-based. The following applies: antagonistic activity, PGE2 6 nM. In short, it runs like this:
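cAMP accumulation quantified by HTRF competition between cellular cAMP and d2-labeled cAMP for cryptate anti-cAMP antibody. Cells: endogenously EP4-expressing BT549, buffer with 2 mM IBMX; 45 min RT compound preincubation preceded 30 min RT challenge with PGE2 at 6 nM final.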
In general terms: Cyclic AMP is a second messenger, typically raised through Gs and lowered through Gi signalling.

In test [2] the target is EP2 (Homo sapiens (Human), UniProt P43116). Description: hEP2 cAMP assay (SF295 glioblastoma cells, HTRF cAMP). It is filed as cell-based. The settings on record: antagonistic activity. The gist of the method:
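PGE2-driven cAMP accumulation was measured by HTRF in SF295 cells, which express endogenous EP2 only. Cells in assay buffer with 2 mM IBMX were pre-incubated 45 min at RT, then incubated 30 min at RT. Detection used competition between cellular cAMP and d2-cAMP for a cryptate anti-cAMP antibody.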

The target in test [3] is T1, PTGER4 (EP4) (Homo sapiens (Human), UniProt P35408).
Text: (§1) The system is based on the Enzyme Fragment Complementation Technology. Two complementing fragments of the b-galactosidase enzyme are expressed within stably transfected cells. The larger portion of b-gal, termed EA for Enzyme Acceptor, is fused to the C-terminus of b-arrestin 2. The smaller fragment, termed ProLink™ tag, is fused to PTGER2 (EP2) or PTRGER4 (EP4) at the C-terminus. Upon activation, b-arrestin is recruited which forces the interaction of ProLink and EA, allowing complementation of the two fragments of b-gal and the formation of a functional enzyme which is capable of hydrolysing the substrate and generating a chemiluminescent signal.
(§2) Plate is incubated at 37° C., 5% CO2 for 24 hours.
(§3) Stock solutions of test compounds are made at a concentration of 10 mM in DMSO, and serially diluted in DMSO to concentrations required for inhibition dose response curves (tested concentration range 10 μM-2 nM or 1 μM-0.2 nM).
(§4) Five microliters of diluted compounds are transferred into the assay plate. Plate is pre-incubated 15 minutes at 37° C. Then five microliters of PGE2 (final conc. 20 nM) are transferred into the assay plate. Plate is incubated 120 minutes at 37° C.
(§5) Twelve I of reagent are transferred to the assay plate and incubate for 1 hour at RT in the dark. Luminescence counts are read on a BMG Fluostar Optima reader according to manufacturer's instructions.
(§6) For each compound concentration calculate of the percentage of activity compared to DMSO control value as average ±STDEV. (each concentration is measured in duplicate)
Test [4] concerns the target PTGER2 (EP2) (Homo sapiens (Human), UniProt P43116). Description: hEP2 b-arrestin assay (PathHunter HEK 293 PTGER2 b-arrestin cells). The following applies: antagonistic activity, beta-arrestin assay; read-out: hEP2 b-arr IC50. It is filed as cell-based. How it is done:
Plate is pre-incubated 15 minutes at 37° C. Then five microliters of PGE2 (final conc. 5 μM) are transferred into the assay plate. Plate is incubated 120 minutes at 37° C.
(each concentration is measured in duplicate)

For test [5], the target named is T1, PTGER4 (EP4). In words: cell-based.
Text: as §1, §2, §3, §4, §5, §6

In general, IC50 refers to the concentration that gives 50% inhibition.

Sequence of EP4 (P35408 whole entry): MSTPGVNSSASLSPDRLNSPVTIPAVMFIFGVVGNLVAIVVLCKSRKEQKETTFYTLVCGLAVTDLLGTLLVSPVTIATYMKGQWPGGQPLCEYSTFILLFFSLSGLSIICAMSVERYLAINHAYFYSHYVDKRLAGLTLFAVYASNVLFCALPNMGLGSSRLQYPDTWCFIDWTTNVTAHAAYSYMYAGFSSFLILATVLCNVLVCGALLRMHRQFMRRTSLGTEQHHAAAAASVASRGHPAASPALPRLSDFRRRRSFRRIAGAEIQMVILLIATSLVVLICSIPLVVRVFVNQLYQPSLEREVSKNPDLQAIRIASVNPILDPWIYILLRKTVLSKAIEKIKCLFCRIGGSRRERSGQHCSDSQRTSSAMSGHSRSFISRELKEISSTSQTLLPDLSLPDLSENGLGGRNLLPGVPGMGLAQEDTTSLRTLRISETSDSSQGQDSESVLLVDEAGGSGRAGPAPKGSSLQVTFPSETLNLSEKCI
T1 sequence (P35408 whole entry): as above
Sequence of EP2 (P43116 whole entry): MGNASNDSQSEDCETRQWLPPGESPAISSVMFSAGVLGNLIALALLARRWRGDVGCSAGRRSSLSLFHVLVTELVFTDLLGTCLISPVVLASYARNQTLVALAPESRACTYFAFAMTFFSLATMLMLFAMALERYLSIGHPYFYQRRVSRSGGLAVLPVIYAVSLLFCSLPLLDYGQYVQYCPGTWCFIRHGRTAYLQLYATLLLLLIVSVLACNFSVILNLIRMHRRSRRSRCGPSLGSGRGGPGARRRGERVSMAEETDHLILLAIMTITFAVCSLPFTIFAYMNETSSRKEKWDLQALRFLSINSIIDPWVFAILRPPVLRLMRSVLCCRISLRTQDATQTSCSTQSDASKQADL
Sequence of PTGER2 (EP2) (P43116 whole entry): as above

Consider `COc1c(CCNc2cc(-c3ccc(C(=O)O)c(SC)c3)ncn2)cc2ccccc2c1Cl` [Ex 186], for which the half-inhibitory concentration (IC50) in test [1] worked out at 202 nM; in test [2], 811 nM; in test [3], 194 nM.

Consider `CCOc1cc(-c2cc(NCCc3c(F)cc4ncccc4c3F)ncn2)ccc1OCC(=O)O` [Ex 191], for which the IC50 in test [1] was 208 nM; in test [2] it was 329 nM; in test [3], 279 nM.

With `CCOc1cc(-c2cc(NCCc3ccc4sccc4c3)ncn2)ccc1OC(C)C(=O)O` (stereo not drawn) [Ex 202], the IC50 worked out at 234 nM in test [1], 277 nM in test [2] and 77 nM in test [3].

With `O=C(O)c1ccc(-c2cc(NCCc3ccc4scnc4c3)ncn2)cc1OC1CCC1` [Ex 291], the IC50 in test [1] was determined as 538 nM; in test [2], 269 nM; in test [3] it was 815 nM.

On to `CCOc1cc(-c2cc(NCCc3cc4cccnc4c(C)c3Cl)ncn2)ccc1OCC(=O)O` [Ex 179], for which the results for the 50% inhibitory concentration (IC50) in test [1], in test [2] and in test [3] were 188 nM, 568 nM and 309 nM, respectively.

Regarding `O=C(O)c1ccc(-c2cc(NCCc3ccc4cccc(F)c4c3)ncn2)cc1OC1CCC1` [Ex 231], the figures for the IC50 in test [1], in test [2] and in test [3] were 315 nM, 5650 nM and 286 nM, respectively.

Take `CCOc1cc(-c2cc(NCCc3cc(F)c4sccc4c3)ncn2)ccc1C(=O)NCC(C)(C)O` [Example 463]: the 50% inhibitory concentration (IC50) in test [4] came to 934 nM; in test [3] it was 223 nM.

On to `CCOc1cc(-c2cc(NCCc3cc(C)c4c(c3)OCCO4)ncn2)sc1C(=O)O` [Ex 95], for which the results for the IC50 in test [1], in test [2] and in test [3] were 59 nM, 447 nM and 25 nM, respectively.

On to `CCOc1cc(-c2cc(NCCc3c(C#N)cc4ccccc4c3C)ncn2)ccc1C(=O)O` [Ex 54], for which the 50% inhibitory concentration (IC50) was 27 nM in test [1], 331 nM in test [2] and 68 nM in test [3].

For the compound “(4-{6-[2-(4-Fluoro-benzo[b]thiophen-5-yl)-ethylamino]-pyrimidin-4-yl}-2-trifluoromethoxy-phenyl)-acetic acid [Example 489]”, the results for the concentration for half-maximal inhibition (IC50) in test [4] and in test [3] were 231 nM and 128 nM, respectively.

On to `CCOc1cc(-c2cc(NCCc3cc4c(cc3C#N)OCCO4)ncn2)ccc1C(=O)O` [Ex 203], for which the figures for the half-inhibitory concentration (IC50) in test [1], in test [2] and in test [3] were 237 nM, 687 nM and 352 nM, respectively.

For `CCOc1cc(-c2cc(NCCc3c(OC)cc4ccccc4c3F)ncn2)ccc1CC(=O)O` [Ex 37], the results for the IC50 in test [1], in test [2] and in test [3] were 22 nM, 281 nM and 16 nM, respectively.

On to `CCOc1cc(-c2cc(NCCc3cc4ccccc4cc3NC)ncn2)ccc1C(=O)O` [Ex 312], for which the concentration for half-maximal inhibition (IC50) in test [1] stood at 689 nM; in test [2], 2490 nM; in test [3], 556 nM.

In the case of `CCOc1cc(-c2cc(NCCc3ccc4cccnc4c3C)ncn2)sc1C(=O)O` [Ex 22], the results for the IC50 in test [1], in test [2] and in test [3] were 13 nM, 395 nM and 20 nM, respectively.

Regarding `C#Cc1c(CCNc2cc(-c3ccc(C(=O)O)c(OC4CCC4)c3)ncn2)ccc2ccccc12` [Ex 131], the IC50 in test [1] was 106 nM; in test [2], 353 nM; in test [3], 68 nM.

With `CCOc1cc(-c2cc(NCCc3cc4ccccc4cc3OC(F)F)ncn2)ccc1OCC(=O)O` [Ex 129], the values for the IC50 in test [1], in test [2] and in test [3] were 104 nM, 494 nM and 35 nM, respectively.

As to `CCOc1cc(-c2cc(NCCc3ccc4ncccc4c3)ncn2)sc1-c1noc(=O)[nH]1` [Example 338, 3-{3-Ethoxy-5-[6-(2-quinolin-6-yl-ethylamino)-pyrimidin-4-y]-thiophen-2-yl}-[1,2,4]oxadiazol-5(4H)-one], the figures for the IC50 in test [1], in test [2] and in test [3] were 64 nM, 459 nM and 15 nM, respectively.

On to `CCOc1cc(-c2cc(NCCc3ccc4sccc4c3)nc(C)n2)ccc1CC(=O)O` [Ex 308], for which the 50% inhibitory concentration (IC50) in test [1] turned out to be 674 nM; in test [2], 926 nM; in test [3], 866 nM.

Take `COc1cc2c(cc1CCNc1cc(-c3ccc(C(=O)O)c(SC)c3)ncn1)CCCN2` [Ex 329]: the IC50 in test [1] stood at 956 nM; in test [2] it was 755 nM; in test [3] it was 798 nM.

On to `CCOc1cc(-c2cc(NCCc3cc4ccccc4c(Cl)c3OC)ncn2)sc1C(=O)O` [Ex 19], for which the half-inhibitory concentration (IC50) in test [1] was 11 nM; in test [2] it was 249 nM; in test [3] it was 16 nM.

Consider `CCOc1cc(-c2cc(NCCc3cc4ccsc4cc3C#N)ncn2)ccc1CC(=O)O` [Ex 82], for which the half-inhibitory concentration (IC50) in test [1] was 46 nM; in test [2], 251 nM; in test [3], 128 nM.

As to `O=C(O)c1ccc(-c2cc(NCCc3cc4ccccc4cc3OC(F)F)ncn2)cc1OC1CCC1` [Ex 180], the values for the IC50 in test [1], in test [2] and in test [3] were 188 nM, 692 nM and 55 nM, respectively.

For the compound `CCOc1cc(-c2cc(NCCc3cc4c(cc3Cl)OC(F)(F)O4)ncn2)sc1C(=O)O` [Ex 165], the IC50 in test [1] turned out to be 164 nM; in test [2], 333 nM; in test [3] it was 188 nM.

Take `CSc1cc(-c2cc(NCCc3c(F)cc4ccccc4c3F)ncn2)ccc1C(=O)O` [Ex 336]: the 50% inhibitory concentration (IC50) is 225 nM in test [4] and 113 nM in test [3].

Turning to `O=C(O)c1ccc(-c2cc(NCCc3c(F)cc4ccccc4c3F)ncn2)cc1OC1CCC1` [Ex 333], the half-inhibitory concentration (IC50) in test [4] stood at 359 nM; in test [3], 128 nM.

In the case of `CCCc1cc(-c2cc(NCCc3ccc4ccccc4c3C)ncn2)ccc1C(=O)O` [Ex 28, 4-{6-[2-(1-Methyl-naphthalen-2-yl)-ethylamino]-pyrimidin-4-yl}-2-propyl-benzoic acid], the IC50 in test [1] is 61 nM; in test [2], 74 nM; in test [4], 135 nM; in test [5] it was 96 nM.

Regarding `CCCCOc1cc(-c2cc(NCCc3cc(F)c4sccc4c3)ncn2)ccc1C(=O)O` [Example 454, 2-Butoxy-4-{6-[2-(7-fluoro-benzo[b]thiophen-5-yl)-ethylamino]-pyrimidin-4-yl}-benzoic acid], the IC50 stood at 225 nM in test [1] (BT549 cells), 608 nM in test [2], 88 nM in test [4] and 212 nM in test [5].

As for `COc1cc2ccsc2cc1CCNc1cc(-c2ccc(C(=O)O)c(SC)c2)ncn1` [Ex 152, 4-{6-[2-(5-Methoxy-benzo[b]thiophen-6-yl)-ethylamino]-pyrimidin-4-yl}-2-methylsulfanyl-benzoic acid], the half-maximal inhibitory concentration (IC50) in test [1] is 145 nM; in test [2] it was 111 nM; in test [4], 119 nM; in test [5] it was 352 nM.

Regarding `CCOc1cc(-c2cc(NCCc3ccc4ccccc4c3C)ncn2)sc1C(=O)NS(N)(=O)=O` [Example 354, 3-Ethoxy-5-(6-((2-(1-methylnaphthalen-2-yl)ethyl)amino)pyrimidin-4-yl)-N-sulfamoylthiophene-2-carboxamide], the IC50 in test [1] was found to be 56 nM; in test [2] it was 27 nM; in test [4], 41 nM; in test [5], 32 nM.

With `CCSc1cc(-c2cc(NCCc3cc4c(cc3OC)OCCO4)ncn2)ccc1C(=O)O` [Ex 110, 2-Ethylsulfanyl-4-{6-[2-(7-methoxy-2,3-dihydro-benzo[1,4]dioxin-6-yl)-ethylamino]-pyrimidin-4-yl}-benzoic acid], the IC50 in test [1] is 81 nM; in test [2], 61 nM; in test [4], 56 nM; in test [5], 179 nM.

As for `CCOc1cc(-c2cc(NCCc3cc4sccc4cc3OC)ncn2)ccc1C(=O)O` [Ex 218], the IC50 stood at 278 nM in test [1], 405 nM in test [2], 160 nM in test [4] and 651 nM in test [5].

In the case of `CCOc1cc(-c2cc(NCCc3cc4ccoc4cc3OC)ncn2)sc1C(=O)O` [Ex 12, 3-Ethoxy-5-{6-[2-(6-methoxy-benzofuran-5-yl)-ethylamino]-pyrimidin-4-yl}-thiophene-2-carboxylic acid], the IC50 in test [1] was found to be 7 nM; in test [2] it was 3 nM; in test [4] it was 7 nM; in test [5], 20 nM.

Consider `CCCc1cc(-c2cc(NCCc3cc4ccsc4cc3OC)ncn2)ccc1CC(=O)O` [Example 385, (4-{6-[2-(6-Methoxy-benzo[b]thiophen-5-yl)-ethylamino]-pyrimidin-4-yl}-2-propyl-phenyl)-acetic acid], for which the IC50 came to 134 nM in test [1], 180 nM in test [2], 30 nM in test [4] and 71 nM in test [5].

In the case of `CCOc1cc(-c2cc(NCCc3cc4occc4cc3OC)ncn2)ccc1OCC(=O)O` [Ex 159, (2-Ethoxy-4-{6-[2-(5-methoxy-benzofuran-6-yl)-ethylamino]-pyrimidin-4-yl}-phenoxy)-acetic acid], the concentration for half-maximal inhibition (IC50) in test [1] amounted to 157 nM; in test [2], 179 nM; in test [4], 180 nM; in test [5] it was 140 nM.

As for `COc1cc2c(cc1CCNc1cc(-c3ccc4c(C(=O)O)coc4c3)ncn1)OCCO2` [Ex 199, 6-{6-[2-(7-Methoxy-2,3-dihydro-benzo[1,4]dioxin-6-yl)-ethylamino]-pyrimidin-4-yl}-benzofuran-3-carboxylic acid], the IC50 was 138 nM in test [1], 62 nM in test [2], 177 nM in test [4] and 2160 nM in test [5].
